In patent EP3838286B1, “ANTIMICROBIAL PEPTIDE FROM POLISTES GALLICUS VENOM AND ITS ANALOGS” (Latoxan, priority 2019, dated 2021):
pIC50: −log10 of the molar value. Converted amounts (≈) assume the structure as drawn. Read-outs that look alike come from different tables or passages of the source. Square brackets hold non-standard residues; d marks the D form. Peptide text beside a SMILES is read from it.

Key:
[1] = Cytotoxicity assay (resazurin); type: cell-based; details: human
Description: Normal human cells used were BEAS-2B (ATCC CRL-9609), IMR-90 (ATCC CCL-186) and Human Umbilical Vein Endothelial Cells (HUVEC) (from Sigma-Aldrich) corresponding respectively to human normal lung epithelial, normal lung fibroblast cells and human normal endothelial cells. All cells except HUVEC cells were cultured in Dulbecco's modified essential medium (DMEM) supplemented with 10% fetal calf serum (FCS), 1% L-glutamine and 1% antibiotics (all from Invitrogen). HUVEC cells were cultured in specific endothelial media (from Sigma Aldrich). Cells were seeded onto […] maintained in a 5% CO2 incubator at 37 °C. Cells grown on 25 cm^2 flasks were detached using trypsin-EDTA solution (from Thermofisher), counted using Mallassez counting chamber and seeded into 96-well cell culture plates (Greiner bio-one) at approximately 10,000 cells per well. The cells were left to grow for 48-72 h at 37 °C in a 5% CO2 incubator until they reached confluence. Plates were then aspirated and increasing concentrations of peptides diluted in culture media were added to the cells for 48 h at 37 °C in a 5% CO2 incubator. At the end of the incubation, wells were emptied and cell viability was evaluated using Resazurin based in vitro toxicity assay kit (from Sigma-Aldrich) following manufacturer's instructions. Briefly, Resazurin stock solution was diluted 1:10 in sterile PBS containing calcium and magnesium (PBS, pH 7.4) and empty wells were filled with 100 µL of the diluted solution. After 4 h incubation at 37 °C, fluorescence intensity was measured using microplate reader (Synergy Mx, Biotek) with an excitation wavelength of 530 nm and an emission wavelength of 590 nm. The fluorescence values were normalized by the controls (buffer treated cells) and expressed as percent viability. The IC50 values of peptides on cell viability (i.e. the concentration of derivative causing a reduction of 50% of cell viability) were determined using GraphPad® Prism 7 software. t-Test and two way ANOVA analyses were used to address the significant differences between mean values with significance set at p < 0.05.

P. aeruginosa [2] = system: P. aeruginosa
Pseudomonas aeruginosa = assay: Stability of the peptides to proteases and human serum (MIC of digested peptides); type: in vitro ADME; details: against Pseudomonas aeruginosa
Description: In order to evaluate the stability of the peptides to condition they will face in vivo, their resistance to proteases and human serum was evaluated (Oyama et al., 2017 Biofilms Microbiomes, Dec 1;3:33). Briefly, one volume of peptides (at 1 mM) was diluted in one volume of proteases (Pepsin, Trypsin, Chymotrypsin, Papain all from Sigma Aldrich and diluted at 2 mg/ml in HCl 10 mM pH2 for Pepsin, PBS pH 7 for Trypsin and Chymotrysin and PBS pH 6 for Papain) or human serum (Sigma Aldrich H4522). Peptides incubated in the same conditions in PBS were used as controls. After 4 h (for proteases) and 4 or 24 h (for human serum) of incubation at 37°C, PMSF was added to the reaction mixture at a final concentration of 100 µM to stop the digestion. MIC of the digested peptides were then determined as explained above.

PC-3 = assay: Antitumor / antiproliferative activity (resazurin); type: cell-based, human; details: prostate cancer cells; 5,000 cells/well; 48 h; read-out: IC50 antiproliferative effect PC-3
Description: (§1) Human cancer cell lines (Mia PaCa-2 (CRL-1420), PC-3 (CRL-1435), MDA-MB-231 (HTB-26)) and normal lung fibrobasts (BEAS-2B (ATCC CRL-9609) and IMR-90 (ATCC CCL-186)) were obtained from American Type Culture Collection (ATCC). HUVEC cells were obtained from Sigma Aldrich and were grown in defined all-in-one ready to use endothelial cell growth medium (Sigma Aldrich). Other cells were cultured in Dulbecco's modified Eagle's medium (DMEM, Gibco Life Technologies) supplemented with 10% heat-inactivated fetal calf serum (FCS, Lonza) at 37 °C in an incubator containing 5% CO2. Cells were sub-cultured in new media every 3-4 days. Antiproliferative / antitumor effects of the peptides were measured as previously described (Borie et al., Eur J Med Chem. 2018;148:306-313). Briefly, cells were detached from growing flask using trypsin, cells were counted and seeded in 96 well-plates in the growth media at an initial cell density of 5000 cells/well. Cells were left for 4 h to attach to the wells. Cells were then treated with increasing concentrations of peptides diluted in culture media. After 48 h incubation at 37 °C in a 5% CO2 incubator, wells were emptied and cell number was evaluated using Resazurin based in vitro toxicity assay kit (from Sigma-Aldrich) following manufacturer's instructions. Briefly, Resazurin stock solution was diluted 1:10 in sterile PBS containing calcium and magnesium (PBS, pH 7.4) and empty wells were filled with 100 µL of the diluted solution. After 4 h incubation at 37 °C, fluorescence intensity was measured using microplate reader (Synergy Mx, Biotek) with an excitation wavelength of 530 nm and an emission wavelength of 590 nm. The fluorescence values were normalized by the controls (buffer treated cells) and expressed as per-cent viability. The IC50 values of peptides on cell division / proliferation (i.e. the concentration of derivative causing a reduction of 50% of cell division) were determined using GraphPad ® Prism 7 software. t-Test and two way ANOVA analyses were used to address the significant differences between mean values with significance set at p < 0.05.

MDA-MB-231 = assay: Antitumor / antiproliferative activity (resazurin); type: cell-based, human; details: breast cancer cells; 5,000 cells/well; 48 h; read-out: IC50 antiproliferative effect MDA-MB-231
Description: as §1

MiaPaCa-2 = assay: Antitumor / antiproliferative activity (resazurin); type: cell-based, human; details: pancreas cancer cells; 5,000 cells/well; 48 h; read-out: IC50 antiproliferative effect MiaPaCa-2
Description: as §1

[3] = system: B. subtilis (Nisin-resistant)
M. smegmatis = details: 72 h
B. subtilis = assay: Selection for resistant bacteria (serial passaging); type: cell-based; details: daily exposure at sub-MIC levels, 30 days; antibiotic: after 10 days
Description: To evaluate if populations of AMP-resistant bacteria could be selected, cultures were continuously exposed to LTX-gallicune-1 (I1N1) and LTX-gallicune-2(R1W8) peptides for a duration of 30 days, as previously described (Oyama et al., 2017 Biofilms Microbiomes, Dec 1;3:33). Briefly, broth microdilution susceptibility testing was performed using a standard doubling-dilution series of gallicune peptides concentrations on day 1. Following incubation of the cultures for 24 h, and determination of the MIC, the well that contained the highest concentration of AMPs permitting growth was diluted 1: 1000 in MH and used to provide the inoculum for the next MIC assay; this process was repeated daily for 30 days.

P. aeruginosa [4] = assay: Antimicrobial tests (MIC/MBC, two-fold serial dilution); type: cell-based, Pseudomonas aeruginosa (ATCC 9037); details: Table 3; n=4

## CC[C@@H](C)[C@@H](N)C(=O)N[C@@H](CC(C)C)C(=O)N[C@@H](CCCCN)C(=O)N[C@@H](C)C(=O)N[C@H](C(=O)N[C@@H](CCCCN)C(=O)N[C@@H](CCCCN)C(=O)N[C@@H](CC(C)C)C(=O)N[C@@H](CC(C)C)C(=O)N[C@@H](CCCCN)C(=O)N[C@H](CC(N)=O)C(N)=O)[C@@H](C)CC [LTX-gallicune-1(i1D-n11D)] (H-[dI]LKAIKKLLK[dN]-NH2)
E. coli EHEC K88
  MBC (µM) E. coli EHEC K88: 50 µM (≈ 64 µg/mL)
  MIC (µM) E. coli EHEC K88: 25 µM (≈ 32 µg/mL)
C. rodentium
  MBC (µM) C. rodentium: 25 µM (≈ 32 µg/mL)
  MIC (µM) C. rodentium: 25 µM (≈ 32 µg/mL)
P. aeruginosa FQR
  MBC (µM) P. aeruginosa FQR: 25 µM (≈ 32 µg/mL)
  MIC (µM) P. aeruginosa FQR: 6.25 to 12.5 µM
[1]; BEAS-2B normal lung epithelial cells, normal lung epithelium, read-out: Cytotoxicity IC50 (µM) BEAS
  CC50 at 48 h: 391 µM
[1]; HUVEC (human umbilical vein endothelial cells), normal endothelium, read-out: Cytotoxicity IC50 (µM) HUVEC
  CC50 at 48 h: 436 µM
[1]; IMR-90 normal lung fibroblast cells, read-out: Cytotoxicity IC50 (µM) IMR90
  CC50 at 48 h: 362 µM
P. aeruginosa [2]
  MBC (µM) P. aeruginosa: 1.5 µM (≈ 1.92 µg/mL)
  MIC (µM) P. aeruginosa: 1.5 µM (≈ 1.92 µg/mL)
  MIC PA: 1.5 µM (≈ 1.92 µg/mL)
S. flexneri
  MBC (µM) S. flexneri: 12.5 µM (≈ 16 µg/mL)
  MIC (µM) S. flexneri: 12.5 µM (≈ 16 µg/mL)
L. lactis
  MBC (µM) L. lactis: 0.78 µM (≈ 0.999 µg/mL)
  MIC (µM) L. lactis: 1.5 µM (≈ 1.92 µg/mL)
V. alginolyticus
  MBC (µM) V. alginolyticus: 0.78 µM (≈ 0.999 µg/mL)
  MIC (µM) V. alginolyticus: 0.78 µM (≈ 0.999 µg/mL)
Pseudomonas aeruginosa; after 4 h at 37°C in human serum
  MIC (µM) Serum4h: >50 µM
Pseudomonas aeruginosa; after 4 h at 37°C with chymotrypsin, pH 7
  MIC (µM) Chymotrypsin: >50 µM
Pseudomonas aeruginosa; after 4 h at 37°C with pepsin, pH2
  MIC (µM) Pepsin: >50 µM
Pseudomonas aeruginosa; after 4 h at 37°C with trypsin, pH 7
  MIC (µM) Trypsin: >50 µM
Pseudomonas aeruginosa; after 24 h at 37°C in human serum
  MIC (µM) Serum24h: 25 µM
Pseudomonas aeruginosa; peptide incubated in PBS, not treated with proteases
  MIC (µM) Control: 3.125 µM
S. enterica
  MBC (µM) S. enterica: 25 µM (≈ 32 µg/mL)
  MIC (µM) S. enterica: 25 µM (≈ 32 µg/mL)
PC-3
  pIC50: 4.49
MDA-MB-231
  pIC50: 4.12
MiaPaCa-2
  pIC50: 5.34
H. pylori
  MBC (µM) H. pylori: 25 µM (≈ 32 µg/mL)
  MIC (µM) H. pylori: 25 µM (≈ 32 µg/mL)
[3]
  MBC (µM) B. subtilis (Nisin-resistant): 6.25 µM (≈ 8 µg/mL)
  MIC (µM) B. subtilis (Nisin-resistant): 6.25 µM (≈ 8 µg/mL)
A.baumani
  MIC (µM) A.baumani: 12.5 µM (≈ 16 µg/mL)
A. gandavensis
  MBC (µM) A. gandavensis: 1.5 µM (≈ 1.92 µg/mL)
  MIC (µM) A. gandavensis: 1.5 µM (≈ 1.92 µg/mL)
P. aeruginosa 01
  MBC (µM) P. aeruginosa 01: 12.5 µM (≈ 16 µg/mL)
  MIC (µM) P. aeruginosa 01: 6.25 µM (≈ 8 µg/mL)
M. smegmatis
  MIC (µM) M. smegmatis: 25 µM (≈ 32 µg/mL)
C. farmeri
  MBC (µM) C. farmeri: 12.5 µM (≈ 16 µg/mL)
  MIC (µM) C. farmeri: 6.25 µM (≈ 8 µg/mL)

## C/C(=C\C(=O)OCCCCCCCCC(=O)O)C[C@@H]1OC[C@H](C[C@@H]2O[C@H]2[C@@H](C)[C@H](C)O)[C@@H](O)[C@H]1O [Mupirocin]
B. subtilis
  change of MIC against B. subtilis on serial passaging (resistance acquisition): increasing

## Gentamycine
P. aeruginosa [4]
  MIC: 0.3 µM
